Results reported in US20240059691A1 (KALVISTA PHARMACEUTICALS LIMITED, priority 2020, published 2024).
Where two headings read alike, the source gives them in different places.

Key:
Human Factor XIIa = Human Factor XIIa (Homo sapiens (Human), UniProt P00748); assay: Determination of FXIIa inhibition (fluorogenic substrate H-DPro-Phe-Arg-AFC, IC50 assay); type: biochemical; settings: substrate H-DPro-Phe-Arg-AFC at Km, 25° C.; class scale A-G
Outline: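 IC50 derived from % remaining activity, taken as the linear fluorescence rate over a 5 min read at 25° C. Substrate H-DPro-Phe-Arg-AFC was used at its Km (Michaelis-Menten) with human FXIIa and serial compound dilutions, 25° C.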

Plasma Kallikrein = Plasma Kallikrein (Homo sapiens (Human), UniProt P03952); assay: Determination of related protease inhibition: Plasma Kallikrein (fluorogenic substrate at Km); type: biochemical; settings: 25° C., read-out: IC50 (human PKal)
Chain of Plasma Kallikrein (P03952 391-638): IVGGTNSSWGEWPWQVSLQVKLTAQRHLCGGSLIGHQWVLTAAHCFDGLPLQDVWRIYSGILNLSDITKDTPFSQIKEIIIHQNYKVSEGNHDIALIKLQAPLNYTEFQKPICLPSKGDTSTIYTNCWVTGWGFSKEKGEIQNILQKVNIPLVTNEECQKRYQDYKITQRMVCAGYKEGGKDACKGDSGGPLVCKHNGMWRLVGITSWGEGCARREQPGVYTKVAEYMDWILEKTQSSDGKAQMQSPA
Chain of Plasma Kallikrein (P03952 20-390 partner): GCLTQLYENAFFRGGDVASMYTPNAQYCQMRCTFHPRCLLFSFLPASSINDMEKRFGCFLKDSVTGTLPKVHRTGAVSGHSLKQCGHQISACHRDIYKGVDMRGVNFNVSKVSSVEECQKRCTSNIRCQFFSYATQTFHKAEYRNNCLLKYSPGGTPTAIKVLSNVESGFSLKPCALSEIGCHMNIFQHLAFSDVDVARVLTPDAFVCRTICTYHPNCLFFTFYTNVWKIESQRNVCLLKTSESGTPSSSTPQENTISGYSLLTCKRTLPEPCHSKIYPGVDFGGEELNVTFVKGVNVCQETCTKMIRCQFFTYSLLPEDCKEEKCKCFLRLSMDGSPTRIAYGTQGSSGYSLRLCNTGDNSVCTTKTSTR
Outline: (§1)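 IC50 derived as the concentration halving uninhibited activity, from linear fluorescence increase per minute monitored 5 min at 25 °C. Each human protease was run with its fluorogenic substrate at Km concentration across a range of test compound concentrations.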

FXa = FXa (Homo sapiens (Human), UniProt P00742); assay: Determination of related protease inhibition: FXa (fluorogenic substrate at Km); type: biochemical; settings: 25° C.
Chain of FXa (P00742 235-488): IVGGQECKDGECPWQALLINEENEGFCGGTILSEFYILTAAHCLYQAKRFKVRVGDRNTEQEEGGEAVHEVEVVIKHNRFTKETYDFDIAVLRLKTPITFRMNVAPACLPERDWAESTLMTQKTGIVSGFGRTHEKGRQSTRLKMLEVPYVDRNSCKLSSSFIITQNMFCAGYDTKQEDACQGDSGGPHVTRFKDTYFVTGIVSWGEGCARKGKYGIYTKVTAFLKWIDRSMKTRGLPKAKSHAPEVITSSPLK
Chain of FXa (P00742 41-179 partner): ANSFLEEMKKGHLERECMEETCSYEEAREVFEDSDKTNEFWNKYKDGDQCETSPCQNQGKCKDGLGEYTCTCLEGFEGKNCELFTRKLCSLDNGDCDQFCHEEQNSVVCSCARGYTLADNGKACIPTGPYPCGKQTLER
Outline: as §1

Thrombin = Thrombin (Homo sapiens (Human), UniProt P00734); assay: Determination of related protease inhibition: Thrombin (fluorogenic substrate at Km); type: biochemical; settings: 25° C.
Outline: as §1

FXIa = FXIa (Homo sapiens (Human), UniProt P03951); assay: Determination of related protease inhibition: FXIa (fixed substrate concentration of 100 μM); type: biochemical; settings: 25° C.
Chain of FXIa (P03951 388-625): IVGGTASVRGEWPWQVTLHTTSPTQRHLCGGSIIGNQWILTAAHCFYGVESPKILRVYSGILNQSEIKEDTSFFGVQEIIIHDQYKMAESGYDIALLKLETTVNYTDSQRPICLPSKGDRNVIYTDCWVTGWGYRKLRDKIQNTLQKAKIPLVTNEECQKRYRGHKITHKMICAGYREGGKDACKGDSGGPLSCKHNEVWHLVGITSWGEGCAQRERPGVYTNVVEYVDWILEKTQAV
Chain of FXIa (P03951 19-387 partner): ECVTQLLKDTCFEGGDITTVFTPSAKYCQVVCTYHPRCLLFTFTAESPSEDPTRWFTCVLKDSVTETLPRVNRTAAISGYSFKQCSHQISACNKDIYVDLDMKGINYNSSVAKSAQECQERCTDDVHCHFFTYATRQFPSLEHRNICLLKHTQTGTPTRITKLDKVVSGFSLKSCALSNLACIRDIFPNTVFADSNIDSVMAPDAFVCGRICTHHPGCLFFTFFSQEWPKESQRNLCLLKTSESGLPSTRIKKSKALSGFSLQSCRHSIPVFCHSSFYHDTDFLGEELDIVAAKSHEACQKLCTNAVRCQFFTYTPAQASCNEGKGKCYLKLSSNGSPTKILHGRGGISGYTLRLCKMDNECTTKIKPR
Experimental: (§2) Determination of Related Protease Inhibition
(§3) In vitro inhibition of related proteases was determined using an ([…] assay based on standard literature methods (see e.g. Shori et al., Biochem. Pharmacol., 1992, 43, 1209; Bouckaert et al., European Journal of Medicinal Chemistry 110 (2016) 181). Human serine protease enzymes Plasma Kallikrein, KLK1, FXa, Plasmin, Thrombin and Trypsin were assayed for enzymatic activity using an appropriate fluorogenic substrate at Km concentration, FXIa at fixed substrate concentration of 100 μM, and various concentrations of the test compound. Protease activity was measured by monitoring the accumulation of liberated fluorescence from the substrate over […]. The linear rate of fluorescence increase per minute was expressed as percentage (%) activity. IC50 values were calculated as the concentration of inhibitor giving 50% inhibition of the uninhibited enzyme activity (100%).

[1] = Pharmacokinetics following a single intravenous dose and a single oral dose in male Sprague-Dawley rats (oral bioavailability, half-life); type: in vivo; settings: rat, plasma, 10% DMSO/10% Cremophor EL/80% SWFI; for bioavailability: read-out: F % (oral bioavailability)
Experimental: Pharmacokinetic studies of the compounds in Table 16 were performed to assess the pharmacokinetics following a single intravenous dose and a single oral dose in male Sprague-Dawley rats. Two rats were given a single intravenous dose of 1 mL/kg of a nominal 1 mg/mL (1 mg/kg) composition of test compound in 10% DMSO/10% Cremophor EL/80% SWFI vehicle. Example 2191 was dosed at 1 mL/kg of a nominal 2 mg/mL (2 mg/kg) using the same vehicle.
Two rats were given a single oral dose of 5 mL/kg of a nominal 1 mg/mL (5 mg/kg) composition of test compound in 10% DMSO/10% Cremophor EL/80% SWFI vehicle. Example 2191 was dosed at 5 mL/kg of a nominal 2 mg/mL (10 mg/kg) using the same vehicle.
Following intravenous dosing, blood samples were collected over a period of 12 h. Sample times were 2, 5, 15 and 30 min then 1, 2, 4, 6, and 12 h. Following oral dosing, blood samples were collected over a period of 24 h. Sample times were 5, 15 and 30 min then 1, 2, 4, 6, 8, 12 and 24 h.
Following collection, blood samples were centrifuged and the plasma fraction analysed for concentration of test compound by LCMS. Oral bioavailability and half-life calculations from these studies were obtained using Phoenix WinNonlin (v8.0) and are shown below: […]

KLK1 = KLK1 (Homo sapiens (Human), UniProt P06870); assay: Determination of related protease inhibition: KLK1 (fluorogenic substrate at Km); type: biochemical; settings: 25° C.
Chain of KLK1 (P06870 25-262): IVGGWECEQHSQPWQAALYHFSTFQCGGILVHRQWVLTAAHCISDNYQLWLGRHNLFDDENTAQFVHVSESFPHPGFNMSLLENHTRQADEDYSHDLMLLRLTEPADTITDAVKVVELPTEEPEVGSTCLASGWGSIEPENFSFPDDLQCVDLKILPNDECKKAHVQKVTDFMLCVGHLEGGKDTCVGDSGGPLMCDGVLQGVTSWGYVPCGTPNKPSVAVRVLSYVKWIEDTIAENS
Outline: as §1

Plasmin = Plasmin (Homo sapiens (Human), UniProt P00747); assay: Determination of related protease inhibition: Plasmin (fluorogenic substrate at Km); type: biochemical; settings: 25° C.
Chain of Plasmin (P00747 581-810): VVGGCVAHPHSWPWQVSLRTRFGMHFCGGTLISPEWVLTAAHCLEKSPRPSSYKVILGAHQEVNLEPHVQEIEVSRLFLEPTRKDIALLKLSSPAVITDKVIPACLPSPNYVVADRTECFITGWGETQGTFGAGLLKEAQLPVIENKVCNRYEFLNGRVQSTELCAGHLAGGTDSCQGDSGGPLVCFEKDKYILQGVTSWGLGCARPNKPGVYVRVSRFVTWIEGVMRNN
Chain of Plasmin (P00747 97-580 partner): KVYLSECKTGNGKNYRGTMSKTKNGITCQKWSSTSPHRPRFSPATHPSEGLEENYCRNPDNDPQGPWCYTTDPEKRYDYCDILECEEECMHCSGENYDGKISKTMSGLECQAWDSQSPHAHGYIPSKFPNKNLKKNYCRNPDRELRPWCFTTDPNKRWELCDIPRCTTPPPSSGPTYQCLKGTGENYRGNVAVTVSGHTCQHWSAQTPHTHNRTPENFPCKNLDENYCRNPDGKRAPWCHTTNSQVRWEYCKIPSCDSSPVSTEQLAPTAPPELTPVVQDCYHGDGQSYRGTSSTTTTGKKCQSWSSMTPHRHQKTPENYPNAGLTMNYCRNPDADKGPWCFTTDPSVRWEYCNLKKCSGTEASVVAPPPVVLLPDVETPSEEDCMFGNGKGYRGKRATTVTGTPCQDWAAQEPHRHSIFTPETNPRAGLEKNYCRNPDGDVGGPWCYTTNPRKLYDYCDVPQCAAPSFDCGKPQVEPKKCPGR
Experimental: as §2, §3

Trypsin = assay: Determination of related protease inhibition: Trypsin (fluorogenic substrate at Km); type: biochemical, human; settings: 25° C.
Experimental: as §2, §3

Chain of Human Factor XIIa (P00748 373-615): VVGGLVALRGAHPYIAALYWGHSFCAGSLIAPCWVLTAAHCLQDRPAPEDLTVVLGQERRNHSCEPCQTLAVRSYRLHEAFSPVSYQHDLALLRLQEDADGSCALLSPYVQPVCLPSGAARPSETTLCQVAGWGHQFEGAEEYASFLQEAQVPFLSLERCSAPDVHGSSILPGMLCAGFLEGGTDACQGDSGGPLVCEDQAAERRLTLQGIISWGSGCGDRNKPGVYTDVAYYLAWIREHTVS

Row | IC50 (Human Factor XIIa) | IC50 (Plasma Kallikrein) | IC50 (FXa) | IC50 (Thrombin) | IC50 (FXIa) | half-life [1] | bioavailability [1] | IC50 (KLK1) | IC50 (Plasmin) | IC50 (Trypsin) | bioavailability ([1]; 5 mg/kg) | Structure (SMILES)
1 | 0.1 to 0.3 µM | 10 to 40 µM | 10 to 40 µM | > 40 µM | > 40 µM | 9.02 h | 22.8% |  |  |  |  | CN1CCC(OCc2ccc(CNc3ccc4c(N)nccc4c3)c(F)c2)CC1 [Example 2191, N6-(2-fluoro-4-(((1-methylpiperidin-4-yl)oxy)methyl)benzyl)isoquinoline-1,6-diamine]
2 | 0.01 to 0.1 µM |  |  |  |  | 4.04 h | 79.4% | > 4 µM |  |  |  | Cc1cc(N2CCn3c(nnc3C(F)(F)F)C2C)ncc1CNc1cccc2c(N)nccc12 (single isomer, unassigned) [Example 1305, (S*)-N5-((4-methyl-6-(8-methyl-3-(trifluoromethyl)-5,6-dihydro-[1,2,4]triazolo[4,3-a]pyrazin-7(8H)-yl)pyridin-3-yl)methyl)isoquinoline-1,5-diamine]
3 | 1 to 3 µM | > 40 µM | > 40 µM | > 40 µM | > 40 µM |  |  | > 40 µM | > 40 µM | > 40 µM |  | CN1CCC(CNc2ccc(CNc3ccnc4[nH]ccc34)cn2)CC1 [Example 1197, N-((6-(((1-methylpiperidin-4-yl)methyl)amino)pyridin-3-yl)methyl)-1H-pyrrolo[2,3-b]pyridin-4-amine]
4 | 0.1 to 0.3 µM |  | 10 to 40 µM | > 40 µM |  |  |  |  | > 40 µM | > 40 µM |  | CN1CCC(Oc2ccc(CNc3cccc4c(N)nccc34)cc2)CC1 [Example 1002, 5-N-({4-[(1-methylpiperidin-4-yl)oxy]phenyl}methyl)isoquinoline-1,5-diamine]
5 | 0.01 to 0.1 µM | > 40 µM | 10 to 40 µM | > 40 µM |  | 8.76 h | 4.9% | 10 to 40 µM |  |  |  | CN1CCC(CNc2ccc(CNc3ccnc4[nH]c(Cl)cc34)cn2)CC1 [Example 1243, 2-chloro-N-((6-(((1-methylpiperidin-4-yl)methyl)amino)pyridin-3-yl)methyl)-1H-pyrrolo [2,3-b]pyridin-4-amine]
6 | 0.3 to 1 µM | > 40 µM | > 40 µM | 10 to 40 µM |  | 2.52 h | 32.1% | 1 to 3 µM |  |  |  | Nc1nccc2c(NCc3ccc(N4CCn5c(nnc5C(F)F)C4)nc3)cccc12 [Example 1274, N5-((6-(3-(Difluoromethyl)-5,6-dihydro-[1,2,4]triazolo[4,3-a]pyrazin-7(8H)-yl)pyridin-3-yl)methyl)isoquinoline-1,5-diamine]
7 |  | > 100 µM | > 40 µM | > 40 µM | > 40 µM |  |  | 1 to 3 µM | > 40 µM | > 40 µM |  | CN1CCC(COc2cc(CNc3cccc4[nH]nc(Cl)c34)ccn2)CC1 [Example 4454, 3-chloro-N-((2-((1-methylpiperidin-4-yl)methoxy)pyridin-4-yl)methyl)-1H-indazol-4-amine]
8 | 0.3 to 1 µM | > 40 µM | > 40 µM | 10 to 40 µM |  | 1.35 h | 25% | 10 to 40 µM |  |  |  | FC(F)c1nnc2n1CCN(c1ccc(CNc3ccnc4[nH]c(Cl)cc34)cn1)C2 [Example 1277, 2-chloro-N-((6-(3-(difluoromethyl)-5,6-dihydro-[1,2,4]triazolo[4,3-a]pyrazin-7(8H)-yl)pyridin-3-yl)methyl)-1H-pyrrolo[2,3-b]pyridin-4-amine]
9 | 3 to 10 µM | 10 to 40 µM | 10 to 40 µM | > 40 µM | > 40 µM |  |  | 10 to 40 µM | > 40 µM | > 40 µM |  | CN1CCC(COc2cc(CNc3ccc4cnccc4c3)ccn2)CC1 [Example 4262, N-({2-[(1-methylpiperidin-4-yl)methoxy]pyridin-4-yl}methyl)isoquinolin-6-amine]
10 | 1 to 3 µM | 10 to 40 µM | 0.3 to 1 µM | 10 to 40 µM | > 40 µM |  |  | 10 to 40 µM | > 40 µM | > 40 µM |  | CN1CCC(COc2cc(CNc3cc4ccnc(N)c4cn3)ccn2)CC1 [Example 4271, 6-N-({2-[(1-methylpiperidin-4-yl)methoxy]pyridin-4-yl}methyl)-2,7-naphthyridine-1,6-diamine]
11 | 0.1 to 0.3 µM | 10 to 40 µM | 10 to 40 µM | > 40 µM | > 40 µM | 4.39 h | 15.8% |  |  |  |  | CN1CCC(OCc2ccc(CNc3cccc4c(N)nccc34)cc2)CC1 [Example 2186, N5-(4-(((1-methylpiperidin-4-yl)oxy)methyl)benzyl)isoquinoline-1,5-diamine]
12 | 0.3 to 1 µM | 1 to 3 µM | 1 to 3 µM | 1 to 3 µM |  |  |  |  | > 40 µM | 10 to 40 µM |  | CN1CCC(Oc2ccc(CNc3ccc4c(N)nccc4c3)cn2)CC1 [Example 1001, 6-N-({6-[(1-methylpiperidin-4-yl)oxy]pyridin-3-yl}methyl)isoquinoline-1,6-diamine]
13 | 0.01 to 0.1 µM | > 20 µM | > 20 µM | > 20 µM | > 20 µM | 6.87 h |  |  |  |  | 26.6% | CN1CCC(OCc2ccc(CNc3cccc4c(N)nccc34)c(F)c2)CC1 [Example 2197, N5-(2-fluoro-4-(((1-methylpiperidin-4-yl)oxy)methyl)benzyl)isoquinoline-1,5-diamine]
14 | 0.01 to 0.1 µM | > 40 µM | > 4 µM |  |  | 2.34 h | 53.2% | 3 to 10 µM |  |  |  | Cc1cc(N2CCn3c(nnc3C(F)(F)F)C2)ncc1CNc1cccc2c(N)nccc12 [Example 1282, N5-((4-Methyl-6-(3-(trifluoromethyl)-5,6-dihydro-[1,2,4]triazolo[4,3-a]pyrazin-7(8H)-yl)pyridin-3-yl)methyl)isoquinoline-1,5-diamine]
15 | 0.3 to 1 µM | 10 to 40 µM | 3 to 10 µM | 1 to 3 µM |  |  |  | 10 to 40 µM | > 40 µM |  |  | CN1CCC(Oc2cc(CNc3ccc4c(N)nccc4c3)ccn2)CC1 [Example 4259, N6-((2-((1-methylpiperidin-4-yl)oxy)pyridin-4-yl)methyl)isoquinoline-1,6-diamine]
16 | 0.1 to 0.3 µM | 10 to 40 µM | 10 to 40 µM | 10 to 40 µM |  | 6.18 h | 9.7% | 3 to 10 µM |  |  |  | Nc1nccc2c(NCc3ccc(OCC4CCn5ccnc5C4)nc3)cccc12 (single isomer, unassigned) [Example 1029, (R*)-N5-((6-((5,6,7,8-tetrahydroimidazo[1,2-a]pyridin-7-yl)methoxy)pyridin-3-yl)methyl)isoquinoline-1,5-diamine]
17 | 0.1 to 0.3 µM | > 20 µM | > 20 µM | > 20 µM | > 20 µM | 9.98 h | 13.6% |  |  |  |  | CN1CCC(COc2cc(CNc3cccc4c(N)nccc34)ccn2)CC1 [Example 4260, N5-((2-((1-methylpiperidin-4-yl)methoxy)pyridin-4-yl)methyl)isoquinoline-1,5-diamine]
